Source: patent US9796705B2, “Fused tricyclic compounds and methods of use thereof for the treatment of viral diseases” (Merck Sharp & Dohme Corp., priority 2009, dated 2017)

What follows are molecules tested on HCV replicon (assay: Cell-Based HCV Replicon Assay). Details: Hepatitis C virus, 72 h; replicon cells, replicon RNA level by real time PCR (Taqman) on day 3; EC90 = concentration to achieve ΔCT=3.2 over baseline; read-out: Biological activity (EC90, HCV replicon assay).
Protocol: To measure cell-based anti-HCV activity of selected compounds of the present invention, replicon cells were seeded at 5000 cells/well in 96-well collagen I-coated Nunc plates in the presence of the test compound. Various concentrations of test compound, typically in 10 serial 2-fold dilutions, were added to the assay mixture, with the starting concentration ranging from 250 µM to 1 μM. The final concentration of DMSO was 0.5%, fetal bovine serum was 5%, in the assay media. Cells were harvested on day 3 by the addition of 1× cell lysis buffer (Ambion cat #8721). The replicon RNA level was measured using real time PCR (Taqman assay). The amplicon was located in 5B. The PCR primers were: 5B.2F, ATGGACAGGCGCCCTGA (SEQ. ID NO. 1); 5B.2R, […] (SEQ. ID NO. 2); the probe sequence was FAM-labeled CACGCCATGCGCTGCGG (SEQ. ID NO. 3). GAPDH RNA was used as endogenous control and was amplified in the same reaction as NS5B (multiplex PCR) using primers and VIC-labeled probe recommended by the manufacturer (PE Applied Biosystem). The real-time RT-PCR reactions were run on ABI PRISM 7900HT Sequence Detection System using the following program: 48° C. for 30 min, 95° C. for 10 min, 40 cycles of 95° C. for 15 sec, 60° C. for 1 min. The ΔCT values (CT-CT5BCTGAPDH) were plotted against the concentration of test compound and fitted to the sigmoid dose-response model using XLfit4 (MDL). EC50 was defined as the concentration of inhibitor necessary to achieve ΔCT=1 over the projected baseline; EC90 the concentration necessary to achieve ΔCT=3.2 over the baseline. Alternatively, to quantitate the absolute amount of replicon RNA, a standard curve was established by including serially diluted T7 transcripts of replicon RNA in the Taqman assay. All Taqman reagents were from PE Applied Biosystems. Such an assay procedure was described in detail in e.g. Malcolm et at, Antimicrobial Agents and Chemotherapy 50: 1013-1020 (2006).
HCV replicon assay data was calculated for selected compounds of the present invention using this method and is provided in the table below.
With `COC(=O)N[C@H](C(=O)N1CCC[C@H]1c1ncc(-c2ccc(-c3ccc4c(ccc5nc([C@@H]6CCCN6C(=O)[C@@H](NC(=O)OC)C(C)C)[nH]c54)c3)s2)[nH]1)C(C)C` [Compound 1] the EC90 was < 1 nM.
With `COC(=O)N[C@H](C(=O)N1CCC[C@H]1c1ncc(-c2cc(C)c(-c3ccc4c(ccc5nc([C@@H]6CCCN6C(=O)[C@@H](NC(=O)OC)C(C)C)[nH]c54)c3)s2)[nH]1)C(C)C` [Compound 2] the EC90 was < 1 nM.
`COC(=O)N[C@H](C(=O)N1CCC[C@H]1c1nc2ccc(-c3ccc4c(ccc5nc([C@@H]6CCCN6C(=O)[C@@H](NC(=O)OC)C(C)C)[nH]c54)c3)cc2[nH]1)C(C)C` [Compound 3] was tested, and the EC90 was < 1 nM.
With `CC(=O)N1CCC[C@H]1c1nc2ccc(-c3ccc4c(ccc5nc([C@@H]6CCCN6C(=O)OC(C)(C)C)[nH]c54)c3)cc2[nH]1` [Compound 4] the EC90 was ≥ 1000 nM.
`COC(=O)N[C@H](C(=O)N1CCC[C@H]1c1nc2ccc3cc(-c4ccc5nc([C@@H]6CCCN6C(C)=O)[nH]c5c4)ccc3c2[nH]1)C(C)C` [Compound 5] was tested, and the EC90 was < 1 nM.
Molecule `CC(=O)N1CCC[C@H]1c1nc2ccc(-c3ccc4c(ccc5nc([C@@H]6CCCN6)[nH]c54)c3)cc2[nH]1` [Compound 6] has an EC90 of 1 to 999 nM.
For `COC(=O)N[C@H](C(=O)N1CCC[C@H]1c1nc2cc(F)c(-c3ccc4c(ccc5nc([C@@H]6CCCN6C(=O)[C@@H](NC(=O)OC)C(C)C)[nH]c54)c3)cc2[nH]1)C(C)C` [Compound 7], the EC90 was < 1 nM.
For `CC(C)(C)OC(=O)N1CCCC[C@H]1c1nc2ccc(-c3ccc4c(ccc5nc([C@@H]6CCCN6C(=O)OC(C)(C)C)[nH]c54)c3)cc2[nH]1` [Compound 8], the EC90 was 1 to 999 nM.
Molecule `CC(C)(C)OC(=O)N1CC(F)(F)C[C@H]1c1nc2ccc(-c3ccc4c(ccc5nc([C@@H]6CCCN6C(=O)OC(C)(C)C)[nH]c54)c3)cc2[nH]1` [Compound 9] has an EC90 of 1 to 999 nM.
Molecule `COC(=O)N[C@H](C(=O)N1CCCC[C@H]1c1nc2ccc(-c3ccc4c(ccc5nc([C@@H]6CCCN6)[nH]c54)c3)cc2[nH]1)C(C)C` [Compound 10] has an EC90 of 1 to 999 nM.
With `COC(=O)N[C@H](C(=O)N1CCCC[C@H]1c1nc2ccc(-c3ccc4c(ccc5nc([C@@H]6CCCN6C(=O)[C@@H](NC(=O)OC)C(C)C)[nH]c54)c3)cc2[nH]1)C(C)C` [Compound 11] the EC90 was < 1 nM.
With `COC(=O)N[C@H](C(=O)N1CC(F)(F)C[C@H]1c1nc2ccc(-c3ccc4c(ccc5nc([C@@H]6CCCN6C(=O)[C@@H](NC(=O)OC)C(C)C)[nH]c54)c3)cc2[nH]1)C(C)C` [Compound 12] the EC90 was < 1 nM.
`CC(C)[C@H](NC(=O)OC(C)(C)C)C(=O)N1CC(F)(F)C[C@H]1c1nc2ccc(-c3ccc4c(ccc5nc([C@@H]6CCCN6C(=O)[C@@H](NC(=O)OC(C)(C)C)C(C)C)[nH]c54)c3)cc2[nH]1` [Compound 13] was tested, and the EC90 was < 1 nM.
`CC(C)[C@H](N)C(=O)N1CC(F)(F)C[C@H]1c1nc2ccc(-c3ccc4c(ccc5nc([C@@H]6CCCN6C(=O)[C@@H](N)C(C)C)[nH]c54)c3)cc2[nH]1` [Compound 14] was tested, and the EC90 was 1 to 999 nM.
`Cc1cc(-c2cnc([C@@H]3CCCN3C(=O)OC(C)(C)C)[nH]2)sc1-c1ccc2c(ccc3nc([C@@H]4CCCN4C(=O)OC(C)(C)C)[nH]c32)c1` [Compound 15] showed an EC90 of 1 to 999 nM.
`COC(=O)N[C@H](C(=O)N1CCC[C@H]1c1nc2ccc(-c3sc4ccc(-c5ccc6c(ccc7nc([C@@H]8CCCN8C(=O)[C@@H](NC(=O)OC)C(C)C)[nH]c76)c5)cc4c3C)cc2[nH]1)C(C)C` [Compound 16] was tested, and the EC90 was < 1 nM.
`COC(=O)N[C@H](C(=O)N1CCC[C@H]1c1nc2ccc(-c3ccc4c(ccc5nc([C@@H]6CCCN6)[nH]c54)c3)cc2[nH]1)C(C)C` [Compound 17] was tested, and the EC90 was 1 to 999 nM.
